Reference: the SangsterLogP compilation

Test: method code SF-AQ, from DOI: 10.1016/0003-9861(68)90547-x, PMID: 5677592

With `OC[C@H]1O[C@@H](Oc2ccc(Cl)cc2)[C@H](O)[C@@H](O)[C@@H]1O` the logP was 0.26.

Test: method code SF-CR, from DOI: 10.1016/0003-9861(68)90547-x, PMID: 5677592

Work on `CC(C)(C)c1cc(OC2OC(CO)C(O)C(O)C2O)cc(C(C)(C)C)c1` (stereo unspecified) yielded a logP of 2.73.

Test: method code SF-CR+AS, from DOI: 10.1016/0003-9861(68)90547-x, PMID: 5677592

Point of comparison: `CCc1cccc(O[C@@H]2O[C@H](CO)[C@@H](O)[C@H](O)[C@H]2O)c1`, logP 0.31. Against it:
- O=[N+]([O-])c1ccccc1O[C@@H]1O[C@H](CO)[C@@H](O)[C@H](O)[C@H]1O — lower, -0.78
- OC[C@H]1O[C@@H](Oc2ccc3ccccc3c2)[C@H](O)[C@@H](O)[C@@H]1O — higher, 0.76
- COc1ccccc1O[C@@H]1O[C@H](CO)[C@@H](O)[C@H](O)[C@H]1O — lower, -1.04
- Nc1ccc(O[C@@H]2O[C@H](CO)[C@@H](O)[C@H](O)[C@H]2O)cc1 — lower, -2.67
- OC[C@H]1O[C@@H](Oc2ccccc2I)[C@H](O)[C@@H](O)[C@@H]1O — within 0.2 log units, 0.27
- Cc1cccc(O[C@@H]2O[C@H](CO)[C@@H](O)[C@H](O)[C@H]2O)c1 — lower, -0.2
- OC[C@H]1O[C@@H](Oc2cccc(C(F)(F)F)c2)[C@H](O)[C@@H](O)[C@@H]1O — within 0.2 log units, 0.49
- Nc1ccccc1O[C@@H]1O[C@H](CO)[C@@H](O)[C@H](O)[C@H]1O — lower, -1.23
- OC[C@H]1O[C@@H](OC2CCCCC2)[C@H](O)[C@@H](O)[C@@H]1O — lower, -0.63
- Cc1ccc(O[C@@H]2O[C@H](CO)[C@@H](O)[C@H](O)[C@H]2O)cc1 — lower, -0.16
- CC(C)(C)c1cccc(O[C@@H]2O[C@H](CO)[C@@H](O)[C@H](O)[C@H]2O)c1 — higher, 1.01
- Cc1ccccc1O[C@@H]1O[C@H](CO)C(O)[C@H](O)[C@H]1O (stereo in doubt) — lower, -0.16
- OCc1ccccc1O[C@@H]1O[C@H](CO)[C@@H](O)[C@H](O)[C@H]1O — lower, -1.22
- COc1ccc(O[C@@H]2O[C@H](CO)[C@@H](O)[C@H](O)[C@H]2O)cc1 — lower, -0.73
- OC[C@H]1O[C@@H](Oc2ccccc2)[C@H](O)[C@@H](O)[C@@H]1O — lower, -0.71
- CC(C)c1cccc(O[C@@H]2O[C@H](CO)[C@H](O)[C@H](O)[C@H]2O)c1 — higher, 0.65
- OC[C@H]1OC(OCc2ccccc2)[C@H](O)[C@@H](O)[C@@H]1O (stereo partly specified) — lower, -0.7
- Cc1ccc(C(C)C)c(O[C@@H]2O[C@H](CO)[C@@H](O)[C@H](O)[C@H]2O)c1 — higher, 1.07
- CC(C)(C)c1ccc(O[C@@H]2O[C@H](CO)[C@@H](O)[C@H](O)[C@H]2O)cc1 — higher, 1.18
- OC[C@H]1O[C@@H](Oc2ccc(O)cc2)[C@H](O)[C@@H](O)[C@@H]1O — lower, -1.35
- COc1cccc(O[C@@H]2O[C@H](CO)[C@@H](O)[C@H](O)[C@H]2O)c1 — lower, -0.52
- OC[C@H]1O[C@@H](Oc2ccc(I)cc2)[C@H](O)[C@@H](O)[C@@H]1O — higher, 0.75
- Cc1cc(C)cc(O[C@@H]2O[C@H](CO)[C@@H](O)[C@H](O)[C@H]2O)c1 — within 0.2 log units, 0.26
